Columns and labels:
Test in all cases: KinomeScan kinase profiling
Assay type in all cases: binding
[1] = target: T1, DLK (Homo sapiens, UniProt Q12852)
T1 construct: purchased Ambit Biosciences Corp (KinomeScan); host or cells: T7 phage in E. coli host derived from BL21
From the text: (§1) The kinases were ABL1(F317L), ABL1(H396P), ABL1(Q252H), ABL1(Y253F), ADCK3, ADCK4, ALK, ARK5, AXL, BLK, BRSK2, CDK7, CIT, CLK4, CSNK1D, CSNK1E, DAPK1, DAPK3, DCAMKL3, DMPK, EGFR, EGFR(E746-A750DEL), EGFR(G719C), EGFR(G719S), EGFR(L747-E749DEL, A750P), EGFR(L747-S752 DEL, P753S), EGFR(L747-T751DEL, Sin), EGFR(L858R), EGFR(L861Q), EGFR(S752-I759DEL), EPHA5, EPHA6, ERBB2, ERBB4, ERK3, ERK4, FGR, FLT3(D835H), FLT3(D835Y), FLT3(ITD), FLT3(N841 I), FRK, GAK, GCN2(KIN.DOM.2, S808G), HCK, IRAK3, JAK1(KIN.DOM.1), KIT, KIT(D816V), KIT(V559D), KIT(V559D,T670I), LCK, LOK, LTK, LYN, MAP3K3, MAP4K4, MAP4K5, MET, MINK, MKNK1, MKNK2, MST4, MYLK2, PDGFRB, PIM3, PKN2, PRKD1, PRKD2, PRKD3, PRKG1, RIPK2, RPS6KA4(KIN.DOM.2), SIK2, SLK, SNARK, SRC, STK36, TNIK, TNNI3K, TYK2(KIN.DOM.2).
(§2) Kinase assays: Assays were performed as described in Fabian et al. (2005) Nature Biotechnology, vol. 23, p. 329. Kinase-tagged T7 phage strains were grown in parallel in 24 or 96-well blocks in an E. coli host derived from the BL21 strain. E. coli were grown to log-phase and infected with T7 phage from a frozen stock (multiplicity of infection ˜0.1) and incubated with shaking at 32° C. until lysis (˜90 minutes). The lysates were centrifuged and filtered to remove cell debris. […] The liganded beads were blocked with excess biotin and washed with blocking buffer (SeaBlock (Pierce), 1% BSA, 0.05% Tween 20, 1 mM DTT) to remove unbound ligand and to reduce non-specific phage binding.
(§3) Test compounds were prepared as 40× stocks in DMSO and diluted into the aqueous environment. 2.5% DMSO was added to control assays lacking a test compound. All reactions were performed in polystyrene 96-well plates that had been pretreated with blocking buffer in a final volume of 0.04 ml. […] The phage titer in the eluates was measured by quantitative PCR.

[2] = target: T2, TRKB (Homo sapiens, UniProt Q16620)
T2 construct: purchased Ambit Biosciences Corp (KinomeScan); host or cells: E. coli host derived from the BL21 strain (T7 phage lysate)
From the text: as §1, §2, §3

[3] = target: T3, TYK2 (JH1domain-catalytic) (Homo sapiens, UniProt P29597)
T3 construct: TYK2 (JH1domain-catalytic); purchased Ambit Biosciences Corp (KinomeScan); host or cells: E. coli host derived from the BL21 strain (T7 phage lysate)
From the text: as §1, §2, §3

[4] = target: T4, ABL1 (Y253F) (Homo sapiens, UniProt P00519, Y253F)
T4 construct: host or cells: E. coli host derived from BL21 (T7 phage lysate)
From the text: as §1, §2, §3

[5] = target: T5, RIOK1 (Homo sapiens, UniProt Q9BRS2)
T5 construct: host or cells: E. coli host derived from BL21, T7 phage lysate
From the text: as §1, §2, §3

[6] = target: T6, TRKC (Homo sapiens, UniProt Q16288)
T6 construct: purchased Ambit Biosciences Corp (KinomeScan); host or cells: E. coli host derived from the BL21 strain (T7 phage lysate)
From the text: as §1, §2, §3

[7] = target: T7, JAK3 (JH1domain-catalytic) (Homo sapiens, UniProt P52333)
T7 construct: JAK3 (JH1domain-catalytic); host or cells: T7 phage in E. coli host derived from BL21
From the text: as §1, §2, §3

[8] = target: T8, MAPKAPK5 (Homo sapiens, UniProt Q8IW41)
T8 construct: host or cells: E. coli derived from BL21, infected with T7 phage
From the text: as §1, §2, §3

[9] = target: T9, SLK (Homo sapiens, UniProt Q9H2G2)
T9 construct: host or cells: E. coli host derived from the BL21 strain, T7 phage lysate
From the text: as §1, §2, §3

[10] = target: T10, SNARK (Homo sapiens, UniProt Q9H093)
T10 construct: host or cells: E. coli host derived from the BL21 strain, T7 phage lysate
From the text: as §1, §2, §3

[11] = target: T11, RET (M918T) (Homo sapiens, UniProt P07949, M918T)
T11 construct: host or cells: E. coli host derived from BL21, T7 phage lysate
From the text: as §1, §2, §3

[12] = target: T12, AURKA (Homo sapiens, UniProt O14965)
T12 construct: purchased Ambit Biosciences Corp (KinomeScan); host or cells: E. coli host derived from the BL21 strain, T7 phage
From the text: as §1, §2, §3

[13] = target: T13, FLT4 (Homo sapiens, UniProt P35916)
T13 construct: host or cells: E. coli host derived from BL21, infected with T7 phage
From the text: as §1, §2, §3

[14] = target: T14, CLK2 (Homo sapiens, UniProt P49760)
T14 construct: host or cells: T7 phage in E. coli (BL21-derived)
From the text: as §1, §2, §3

[15] = target: T15, PIK3CD (Homo sapiens, UniProt O00329)
T15 construct: purchased Ambit Biosciences Corp (KinomeScan); host or cells: E. coli host derived from BL21, infected with T7 phage
From the text: as §1, §2, §3

[16] = target: T16, MLK1 (Homo sapiens, UniProt P80192)
T16 construct: host or cells: T7 phage in E. coli host derived from BL21
From the text: as §1, §2, §3

[17] = target: T17, IRAK3 (Homo sapiens, UniProt Q9Y616)
T17 construct: host or cells: T7 phage in E. coli host derived from BL21
From the text: as §1, §2, §3

[18] = target: T18, FLT3 (K663Q) (Homo sapiens, UniProt P36888, K663Q)
T18 construct: host or cells: E. coli host derived from BL21, infected with T7 phage
From the text: as §1, §2, §3

[19] = target: T19, RIOK3 (Homo sapiens, UniProt O14730)
T19 construct: host or cells: E. coli host derived from BL21, T7 phage lysate
From the text: as §1, §2, §3

[20] = target: T20, EGFR (G719C) (Homo sapiens, UniProt P00533, G719C)
T20 construct: purchased Ambit Biosciences Corp (KinomeScan); host or cells: T7 phage in E. coli host derived from BL21
From the text: as §1, §2, §3

[21] = target: T21, LOK (Homo sapiens, UniProt O94804)
T21 construct: host or cells: E. coli derived from BL21, infected with T7 phage
From the text: as §1, §2, §3

T11 sequence (P07949 29-1114 M918T): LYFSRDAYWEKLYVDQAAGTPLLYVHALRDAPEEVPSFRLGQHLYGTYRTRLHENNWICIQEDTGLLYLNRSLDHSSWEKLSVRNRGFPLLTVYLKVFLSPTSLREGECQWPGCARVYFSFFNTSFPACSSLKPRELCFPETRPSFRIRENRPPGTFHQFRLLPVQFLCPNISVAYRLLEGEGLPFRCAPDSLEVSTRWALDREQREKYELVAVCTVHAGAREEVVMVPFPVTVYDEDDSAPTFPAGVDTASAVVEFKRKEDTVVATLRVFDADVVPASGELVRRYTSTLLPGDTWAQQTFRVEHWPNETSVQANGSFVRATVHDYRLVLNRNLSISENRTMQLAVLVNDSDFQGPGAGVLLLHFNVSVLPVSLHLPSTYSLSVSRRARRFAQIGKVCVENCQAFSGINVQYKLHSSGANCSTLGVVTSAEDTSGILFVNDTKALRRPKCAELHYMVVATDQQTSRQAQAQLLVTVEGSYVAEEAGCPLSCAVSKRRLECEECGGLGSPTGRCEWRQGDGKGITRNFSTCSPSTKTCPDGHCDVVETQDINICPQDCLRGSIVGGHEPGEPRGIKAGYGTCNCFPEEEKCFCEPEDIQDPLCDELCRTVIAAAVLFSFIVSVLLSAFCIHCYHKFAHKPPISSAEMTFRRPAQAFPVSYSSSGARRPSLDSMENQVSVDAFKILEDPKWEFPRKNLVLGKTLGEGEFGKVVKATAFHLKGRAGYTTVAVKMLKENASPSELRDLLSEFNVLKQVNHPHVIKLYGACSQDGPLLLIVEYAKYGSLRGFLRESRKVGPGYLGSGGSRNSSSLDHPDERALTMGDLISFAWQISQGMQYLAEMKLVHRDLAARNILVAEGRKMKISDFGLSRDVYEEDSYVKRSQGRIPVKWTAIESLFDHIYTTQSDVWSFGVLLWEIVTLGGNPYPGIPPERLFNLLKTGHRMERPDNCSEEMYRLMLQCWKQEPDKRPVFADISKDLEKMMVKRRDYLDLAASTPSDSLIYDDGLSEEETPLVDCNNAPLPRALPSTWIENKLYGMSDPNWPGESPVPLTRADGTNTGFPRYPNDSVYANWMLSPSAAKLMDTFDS
T9 sequence (Q9H2G2 whole entry): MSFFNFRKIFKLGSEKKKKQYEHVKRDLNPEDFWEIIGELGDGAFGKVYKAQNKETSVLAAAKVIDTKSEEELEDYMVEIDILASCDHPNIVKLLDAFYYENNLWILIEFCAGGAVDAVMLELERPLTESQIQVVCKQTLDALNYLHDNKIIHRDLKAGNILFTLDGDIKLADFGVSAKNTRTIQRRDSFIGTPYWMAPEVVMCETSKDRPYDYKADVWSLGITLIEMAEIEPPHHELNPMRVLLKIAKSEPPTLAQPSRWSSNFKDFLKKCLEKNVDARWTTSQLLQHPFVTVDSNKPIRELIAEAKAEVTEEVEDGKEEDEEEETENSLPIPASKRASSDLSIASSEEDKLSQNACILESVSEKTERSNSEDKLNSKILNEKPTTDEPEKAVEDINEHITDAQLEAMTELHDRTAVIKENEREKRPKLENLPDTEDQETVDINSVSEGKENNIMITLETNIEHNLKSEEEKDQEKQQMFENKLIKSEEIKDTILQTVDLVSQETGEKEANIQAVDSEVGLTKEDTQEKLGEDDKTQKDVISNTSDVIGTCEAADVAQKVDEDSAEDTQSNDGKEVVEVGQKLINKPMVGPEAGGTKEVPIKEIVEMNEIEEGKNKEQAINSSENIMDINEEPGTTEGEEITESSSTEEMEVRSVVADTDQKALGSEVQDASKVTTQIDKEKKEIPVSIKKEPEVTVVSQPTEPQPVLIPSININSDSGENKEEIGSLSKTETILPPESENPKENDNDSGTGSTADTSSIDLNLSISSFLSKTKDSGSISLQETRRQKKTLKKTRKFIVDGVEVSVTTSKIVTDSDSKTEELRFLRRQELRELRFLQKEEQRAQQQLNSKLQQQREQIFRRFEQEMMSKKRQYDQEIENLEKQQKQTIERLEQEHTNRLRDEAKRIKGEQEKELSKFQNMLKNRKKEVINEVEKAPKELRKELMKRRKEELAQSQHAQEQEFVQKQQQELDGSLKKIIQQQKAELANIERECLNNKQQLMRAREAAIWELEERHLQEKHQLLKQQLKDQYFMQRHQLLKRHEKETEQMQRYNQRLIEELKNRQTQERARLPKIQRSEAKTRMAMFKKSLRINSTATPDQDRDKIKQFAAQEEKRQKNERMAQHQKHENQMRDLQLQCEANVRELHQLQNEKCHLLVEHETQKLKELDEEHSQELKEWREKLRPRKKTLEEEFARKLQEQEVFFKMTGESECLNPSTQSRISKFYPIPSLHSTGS
T10 sequence (Q9H093 whole entry): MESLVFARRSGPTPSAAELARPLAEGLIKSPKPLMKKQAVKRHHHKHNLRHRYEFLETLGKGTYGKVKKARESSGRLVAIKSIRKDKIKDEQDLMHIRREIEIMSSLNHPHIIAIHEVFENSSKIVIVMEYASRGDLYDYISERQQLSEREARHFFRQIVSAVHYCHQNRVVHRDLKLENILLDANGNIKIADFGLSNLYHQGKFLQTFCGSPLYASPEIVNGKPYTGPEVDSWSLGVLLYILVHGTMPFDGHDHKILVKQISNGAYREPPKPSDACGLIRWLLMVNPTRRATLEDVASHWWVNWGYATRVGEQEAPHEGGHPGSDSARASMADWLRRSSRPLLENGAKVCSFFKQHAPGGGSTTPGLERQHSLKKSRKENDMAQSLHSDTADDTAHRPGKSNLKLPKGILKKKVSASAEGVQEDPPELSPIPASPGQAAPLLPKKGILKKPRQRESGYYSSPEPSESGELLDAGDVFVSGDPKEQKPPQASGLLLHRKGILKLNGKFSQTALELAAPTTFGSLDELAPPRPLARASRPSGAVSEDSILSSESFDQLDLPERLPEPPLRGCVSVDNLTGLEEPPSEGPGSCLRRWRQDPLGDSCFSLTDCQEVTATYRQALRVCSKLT
T6 sequence (Q16288 32-839): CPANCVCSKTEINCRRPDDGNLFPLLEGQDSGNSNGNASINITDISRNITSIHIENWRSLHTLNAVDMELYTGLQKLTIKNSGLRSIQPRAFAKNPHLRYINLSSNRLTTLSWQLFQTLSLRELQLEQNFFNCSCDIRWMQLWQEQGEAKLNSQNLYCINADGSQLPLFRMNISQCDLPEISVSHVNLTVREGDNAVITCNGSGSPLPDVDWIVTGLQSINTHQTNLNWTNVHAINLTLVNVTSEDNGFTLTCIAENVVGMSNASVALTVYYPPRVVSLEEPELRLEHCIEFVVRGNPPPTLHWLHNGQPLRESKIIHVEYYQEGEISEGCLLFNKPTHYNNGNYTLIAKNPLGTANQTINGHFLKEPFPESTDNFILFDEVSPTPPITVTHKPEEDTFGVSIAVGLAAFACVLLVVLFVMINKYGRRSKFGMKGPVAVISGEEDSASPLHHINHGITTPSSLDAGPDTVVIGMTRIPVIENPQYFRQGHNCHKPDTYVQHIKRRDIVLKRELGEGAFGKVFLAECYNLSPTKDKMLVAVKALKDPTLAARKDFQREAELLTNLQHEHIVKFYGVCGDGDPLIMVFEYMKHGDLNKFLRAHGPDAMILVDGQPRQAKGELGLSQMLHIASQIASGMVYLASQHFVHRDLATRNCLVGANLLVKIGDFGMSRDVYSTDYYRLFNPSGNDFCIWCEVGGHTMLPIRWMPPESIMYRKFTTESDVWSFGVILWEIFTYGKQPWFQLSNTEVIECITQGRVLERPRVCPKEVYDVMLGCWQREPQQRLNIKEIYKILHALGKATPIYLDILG
T19 sequence (O14730 whole entry): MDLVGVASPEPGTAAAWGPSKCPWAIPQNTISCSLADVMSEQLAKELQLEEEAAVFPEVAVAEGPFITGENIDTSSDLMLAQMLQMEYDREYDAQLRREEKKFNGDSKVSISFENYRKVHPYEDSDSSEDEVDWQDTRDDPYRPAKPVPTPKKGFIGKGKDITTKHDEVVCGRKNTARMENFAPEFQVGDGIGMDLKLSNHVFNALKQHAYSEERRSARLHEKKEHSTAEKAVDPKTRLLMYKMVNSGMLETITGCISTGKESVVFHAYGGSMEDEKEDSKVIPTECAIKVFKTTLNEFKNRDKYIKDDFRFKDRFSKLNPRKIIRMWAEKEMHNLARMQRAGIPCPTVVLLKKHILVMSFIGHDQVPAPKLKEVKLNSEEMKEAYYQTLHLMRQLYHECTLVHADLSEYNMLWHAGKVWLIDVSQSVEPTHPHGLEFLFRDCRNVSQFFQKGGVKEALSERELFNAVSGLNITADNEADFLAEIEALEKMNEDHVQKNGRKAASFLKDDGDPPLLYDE
T12 sequence (O14965 whole entry): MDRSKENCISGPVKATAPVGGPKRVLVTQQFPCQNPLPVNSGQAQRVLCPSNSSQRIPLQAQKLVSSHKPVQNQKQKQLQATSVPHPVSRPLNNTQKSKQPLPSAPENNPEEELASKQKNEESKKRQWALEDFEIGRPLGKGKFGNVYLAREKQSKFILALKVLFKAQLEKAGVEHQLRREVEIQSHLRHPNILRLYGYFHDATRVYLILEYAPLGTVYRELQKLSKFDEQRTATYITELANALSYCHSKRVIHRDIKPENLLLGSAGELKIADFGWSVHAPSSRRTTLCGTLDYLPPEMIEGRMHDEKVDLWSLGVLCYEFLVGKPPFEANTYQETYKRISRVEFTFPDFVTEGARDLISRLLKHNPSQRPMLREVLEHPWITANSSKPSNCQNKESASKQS
T7 sequence (P52333 822-1111 limits assumed): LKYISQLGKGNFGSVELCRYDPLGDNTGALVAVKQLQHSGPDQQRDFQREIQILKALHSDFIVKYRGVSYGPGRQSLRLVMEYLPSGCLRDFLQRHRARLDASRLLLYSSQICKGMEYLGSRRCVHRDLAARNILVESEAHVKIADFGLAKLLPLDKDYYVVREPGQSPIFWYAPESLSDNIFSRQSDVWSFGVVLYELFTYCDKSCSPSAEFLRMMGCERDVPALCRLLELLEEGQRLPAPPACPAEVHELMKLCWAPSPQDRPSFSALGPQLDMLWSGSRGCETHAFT

In the case of C#Cc1cccc(Nc2ncnc3cc(OC)c(OCCCN4CCOCC4)cc23)c1 [NRC-2694, N-(3-ethylnylphenyl)-7-methoxy-6-[3-(4-morpholinyl)propoxy]-4-quinazolinamine], the “% Ctrl @ 10000 nM” value [1] is reported as 92 % Ctrl, the “% Ctrl @ 10000 nM” value [2] is reported as 73 % Ctrl and the “% Ctrl @ 10000 nM” value [3] is reported as 97 % Ctrl. The “% Ctrl @ 10000 nM” value [4] was 23 % Ctrl, the “% Ctrl @ 10000 nM” value [5] was 36 % Ctrl and the “% Ctrl @ 10000 nM” value [6] was 80 % Ctrl. The “% Ctrl @ 10000 nM” value [7] was 72 % Ctrl, the “% Ctrl @ 10000 nM” value [8] was 79 % Ctrl and the “% Ctrl @ 10000 nM” value [9] was 0.3 % Ctrl. The “% Ctrl @ 10000 nM” value [10] was 19 % Ctrl, the “% Ctrl @ 10000 nM” value [11] was 37 % Ctrl and the “% Ctrl @ 10000 nM” value [12] was 100 % Ctrl. The “% Ctrl @ 10000 nM” value [13] was 66 % Ctrl, the “% Ctrl @ 10000 nM” value [14] was 64 % Ctrl and the “% Ctrl @ 10000 nM” value [15] was 89 % Ctrl. For the same molecule, the “% Ctrl @ 10000 nM” value [16] was 100 % Ctrl, the “% Ctrl @ 10000 nM” value [17] was 25 % Ctrl and the “% Ctrl @ 10000 nM” value [18] was 56 % Ctrl. For the same molecule, the “% Ctrl @ 10000 nM” value [19] was 37 % Ctrl, the “% Ctrl @ 10000 nM” value [20] was 0 % Ctrl and the “% Ctrl @ 10000 nM” value [21] was 0 % Ctrl.
